# Measured values published in patent US12331035B2, “Bicyclic compound and use thereof” (SK BIOPHARMACEUTICALS CO., LTD., priority 2019, dated 2025).
# Biological target: T1, PRMT5-MEP50 enzyme complex (Homo sapiens, UniProt O14744)
# T1 construct: purchased BPS Bioscience (USA) 51045
# Assay: In vitro PRMT5 enzyme activity assay (methylation of histone H4 arginine H4R3, ELISA absorbance at 450 nm)
# Assay type: biochemical
# Settings: S-adenosylmethionine, histone H4 peptide, 2 hours at room temperature, 8 points 10 μM to 0.128 nM
# Protocol: Method for Measuring Enzyme Activity
# In vitro assay: PRMT5-MEP50 enzyme complex, cofactor S-adenosylmethionine (SAM) and histone H4 peptide were reacted in vitro, and methylation of arginine (H4R3) —which is the third amino acid of histone H4—was measured in order to measure the enzyme activity of PRMT5.
# Reagents: PRMT5-MEP50 enzyme complex (Catalog No. 51045), blocking buffer (52100-B), histone methyltransferase reaction buffer 2 (4×HMT assay buffer 2, Catalog No. 52170), and primary antibody (primary antibody 4-3, Catalog No. 52150) were purchased from BPS Bioscience (USA). The histone H4 peptide (1-20 amino acids) was custom made by Komabiotech (Korea) and used. S-adenosylmethionine was purchased from NEB (New England Biolabs, USA, Catalog No. B9003S). Plates for coating histone H4 peptide, washing buffer and color development reagent were purchased from the following vendors: Plate (Immobilizer™-Amino Plate, NUNC, Denmark, Catalog No. 436023), carbonate-bicarbonate buffer (Sigma-Aldrich, USA, Catalog No. C3041), washing buffer (10×TBST, Biosesang, Korea, Catalog No. T2005), TMB ELISA substrate (Abcam, UK, Catalog No. ab210902), horseradish peroxidase (HRP)-conjugated antibody (Abcam, UK, Catalog No. ab6721).
# Experimental procedure: The histone H4 peptide was diluted with carbonate-bicarbonate buffer and prepared to 100 μg/mL, and then dispensed onto the plate per 100 μL and reacted at 37° C. for 1 hour. PRMT5-MEP50 enzyme complex and S-adenosylmethionine were diluted with histone methyltransferase reaction buffer to prepare 5 μg/mL and 2 μM, respectively, and then 20 μL of PRMT5-MEP50 enzyme complex and 25 μL of S-adenosylmethionine were dispensed onto the plate prepared above. 5 μL of the compound diluted with 10% dimethyl sulfoxide solution was added thereto and reacted at room temperature for 2 hours (final volume=50 μL). The concentration of the compound was diluted 1:5 from 10 μM until the lowest concentration of 0.128 nM, and 8 points were used for the test. After preparing the primary antibody by diluting 1:2000 with blocking buffer, 100 μL was added to the plate and reacted at room temperature for 1 hour. After preparing horseradish peroxidase-conjugated antibody by diluting 1:10,000 with blocking buffer, 100 μL was added to the plate and reacted at room temperature for 1 hour. 100 μL of TMB substrate was added and reacted for 3 minutes at room temperature, and 100 μL of 1 N sulfuric acid was then added to terminate the reaction. Then, the absorbance at 450 nm was measured to calculate the IC50 value of the compound. (+++: 1 to 100 nM, ++: greater than 100 to 1,000 nM, +: greater than 1,000 to 10,000 nM)
# T1 sequence (O14744 2-637 limits assumed): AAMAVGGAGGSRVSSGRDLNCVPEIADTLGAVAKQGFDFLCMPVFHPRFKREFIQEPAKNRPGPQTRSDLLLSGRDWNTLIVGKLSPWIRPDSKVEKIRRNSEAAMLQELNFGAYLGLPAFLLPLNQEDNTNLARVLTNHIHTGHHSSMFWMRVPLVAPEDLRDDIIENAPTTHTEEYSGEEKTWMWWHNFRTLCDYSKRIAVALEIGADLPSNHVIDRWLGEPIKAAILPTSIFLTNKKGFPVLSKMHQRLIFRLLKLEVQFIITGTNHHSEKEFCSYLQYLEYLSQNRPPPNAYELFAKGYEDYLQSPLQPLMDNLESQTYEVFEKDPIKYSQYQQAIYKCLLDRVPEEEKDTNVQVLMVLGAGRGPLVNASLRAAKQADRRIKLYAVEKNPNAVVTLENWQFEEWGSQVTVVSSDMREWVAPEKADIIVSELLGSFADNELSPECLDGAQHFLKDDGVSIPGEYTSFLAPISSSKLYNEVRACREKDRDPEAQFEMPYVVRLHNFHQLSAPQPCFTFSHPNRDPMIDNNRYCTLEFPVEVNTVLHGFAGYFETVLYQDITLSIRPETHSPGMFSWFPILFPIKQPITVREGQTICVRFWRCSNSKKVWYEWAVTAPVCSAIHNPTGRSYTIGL
# T1 sequence (Q9BQA1 2-342 partner limits assumed): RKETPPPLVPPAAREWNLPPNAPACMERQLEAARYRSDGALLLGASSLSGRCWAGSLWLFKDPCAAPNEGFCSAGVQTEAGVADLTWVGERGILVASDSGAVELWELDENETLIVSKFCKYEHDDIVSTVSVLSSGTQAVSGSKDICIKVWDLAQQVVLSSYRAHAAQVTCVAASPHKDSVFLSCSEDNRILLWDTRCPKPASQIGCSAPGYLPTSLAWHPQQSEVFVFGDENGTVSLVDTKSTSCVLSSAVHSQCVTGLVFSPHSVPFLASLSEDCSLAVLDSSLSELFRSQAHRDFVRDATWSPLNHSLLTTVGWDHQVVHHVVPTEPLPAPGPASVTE
row,Compound,IC50
1,"O=C1c2ccc(C#Cc3ccncc3)cc2CCN1C[C@H](O)CN1CCc2ccccc2C1 [Example 138, 2-[(2R)-3-(3,4-dihydro-1H-isoquinolin-2-yl)-2-hydroxypropyl]-6-[2-(4-pyridyl)ethynyl]-3,4-dihydroisoquinolin-1-one]",100 to 1000 nM
2,"CC(=O)N1CCC(Nc2ccc3c(c2)CCN(C[C@H](O)CN2CCc4ccccc4C2)C3=O)C1 (stereo partly drawn) [Example 99, 6-[(1-acetylpyrrolidin-3-yl)amino]-2-[(2R)-3-(3,4-dihydro-1H-isoquinolin-2-yl)-2-hydroxy-propyl]-3,4-dihydroisoquinolin-1-one]",100 to 1000 nM
3,"CC1(C)CN(C[C@H](O)CN2CCc3ccccc3C2)C(=O)c2ccc(N3CCN(C=O)CC3)cc21 [Example 125, 4-[2-[(2R)-3-(3,4-dihydro-1H-isoquinolin-2-yl)-2-hydroxy-propyl]-4,4-dimethyl-1-oxo-3H-isoquinolin-6-yl]piperazine-1-carbaldehyde]",100 to 1000 nM
4,"O=C1c2ccc(N3CC4CC3CN4)cc2CCN1C[C@H](O)CN1CCc2ccccc2C1 (stereo partly drawn) [Example 76, 6-(2,5-diazabicyclo[2.2.1]heptan-2-yl)-2-[(2R)-3-(3,4-dihydro-1H-isoquinolin-2-yl)-2-hydroxy-propyl]-3,4-dihydroisoquinolin-1-one]",100 to 1000 nM
5,"CN(C)CCOC1CCN(c2ccc3c(c2)CCN(C[C@H](O)CN2CCc4ccccc4C2)C3=O)CC1 [Example 119, 2-[(2R)-3-(3,4-dihydro-1H-isoquinolin-2-yl)-2-hydroxy-propyl]-6-[4-[2-(dimethylamino)ethoxy]-1-piperidyl]-3,4-dihydroisoquinolin-1-one]",100 to 1000 nM
6,"CC(C)N1CCN(c2ccc3c(c2)CCN(C[C@H](O)CN2CCc4ccccc4C2)C3=O)CC1=O [Example 85, 2-[(2R)-3-(3,4-dihydro-1H-isoquinolin-2-yl)-2-hydroxy-propyl]-6-(4-isopropyl-3-oxo-piperazin-1-yl)-3,4-dihydroisoquinolin-1-one]",100 to 1000 nM
7,"O=C1c2ccc(C#CCO)cc2CCN1C[C@H](O)CN1CCc2ccccc2C1 [Example 137, 2-[(2R)-3-(3,4-dihydro-1H-isoquinolin-2-yl)-2-hydroxypropyl]-6-(3-hydroxyprop-1-ynyl)-3,4-dihydroisoquinolin-1-one]",100 to 1000 nM
8,"O=C1c2ccc(N3CC4CC3CO4)cc2CCN1C[C@H](O)CN1CCc2ccccc2C1 (stereo partly drawn) [Example 73, 2-[(2R)-3-(3,4-dihydro-1H-isoquinolin-2-yl)-2-hydroxy-propyl]-6-(2-oxa-5-azabicyclo[2.2.1]heptan-5-yl)-3,4-dihydroisoquinolin-1-one]",100 to 1000 nM
9,"O=C1c2ccc(N3CCCCC3=O)cc2CCN1C[C@H](O)CN1CCc2ccccc2C1 [Example 21, 2-[(2R)-3-(3,4-dihydro-1H-isoquinolin-2-yl)-2-hydroxy-propyl]-6-(2-oxo-1-piperidyl)-3,4-dihydroisoquinolin-1-one]",100 to 1000 nM
10,"O=C1c2ccc(OC3CCCN(CCF)C3)cc2CCN1C[C@H](O)CN1CCc2ccccc2C1 (stereo partly drawn) [Example 140, 2-[(2R)-3-(3,4-dihydro-1H-isoquinolin-2-yl)-2-hydroxypropyl]-6-[[1-(2-fluoroethyl)-3-piperidyl]oxy]-3,4-dihydroisoquinolin-1-one]",100 to 1000 nM
11,"CC1COCCN1c1ccc2c(c1)CCN(C[C@H](O)CN1CCc3ccccc3C1)C2=O (stereo partly drawn) [Example 40, 2-[(2R)-3-(3,4-dihydro-1H-isoquinolin-2-yl)-2-hydroxy-propyl]-6-(3-methylmorpholin-4-yl)-3,4-dihydroisoquinolin-1-one]",1000 to 10000 nM
12,"O=C(Nc1ccc2c(c1)CCN(C[C@H](O)CN1CCc3ccccc3C1)C2=O)c1ccncc1 [Example 27, N-[2-[(2R)-3-(3,4-dihydro-1H-isoquinolin-2-yl)-2-hydroxy-propyl]-1-oxo-3,4-dihydroisoquinolin-6-yl]pyridine-4-carboxamide]",100 to 1000 nM
13,"O=C1c2ccc(N3CCC(N4CCCC4)CC3)cc2CCN1C[C@H](O)CN1CCc2ccccc2C1 [Example 106, 2-[(2R)-3-(3,4-dihydro-1H-isoquinolin-2-yl)-2-hydroxy-propyl]-6-(4-pyrrolidin-1-yl-1-piperidyl)-3,4-dihydroisoquinolin-1-one]",1 to 100 nM
14,"CC(=O)N1CCCC(Nc2ccc3c(c2)CCN(C[C@H](O)CN2CCc4ccccc4C2)C3=O)C1 (stereo partly drawn) [Example 93, 6-[(1-acetyl-3-piperidyl)amino]-2-[(2R)-3-(3,4-dihydro-1H-isoquinolin-2-yl)-2-hydroxy-propyl]-3,4-dihydroisoquinolin-1-one]",1 to 100 nM

# Results, then the compound that gave them:
row,IC50,Compound
1,1 to 100 nM,"O=C1c2ccc(N3CCN(C4CCOC4)CC3)cc2CCN1C[C@H](O)CN1CCc2ccccc2C1 (stereo partly drawn) [Example 127, 2-[(2R)-3-(3,4-dihydro-1H-isoquinolin-2-yl)-2-hydroxy-propyl]-6-(4-tetrahydrofuran-3-ylpiperazin-1-yl)-3,4-dihydroisoquinolin-1-one]"
2,1 to 100 nM,"CC(C)(C)OC(=O)N1CC=C(c2ccc3c(c2)CCN(C[C@H](O)CN2CCc4ccccc4C2)C3=O)CC1 [Example 56, tert-butyl 4-[2-[(2R)-3-(3,4-dihydro-1H-isoquinolin-2-yl)-2-hydroxy-propyl]-1-oxo-3,4-dihydroisoquinolin-6-yl]-3,6-dihydro-2H-pyridine-1-carboxylate]"
3,1 to 100 nM,"O=C1c2ccc(CN3CCCOCC3)cc2CCN1C[C@H](O)CN1CCc2ccccc2C1 [Example 54, 2-[(2R)-3-(3,4-dihydro-1H-isoquinolin-2-yl)-2-hydroxy-propyl]-6-(1,4-oxazepan-4-ylmethyl)-3,4-dihydroisoquinolin-1-one]"
4,1 to 100 nM,"CC(C)(C)OC(=O)N1CCN(c2ccc3c(c2)CCN(C[C@H](O)CN2CCc4ccccc4C2)C3=O)CC1 [Example 53, tert-butyl 4-[2-[(2R)-3-(3,4-dihydro-1H-isoquinolin-2-yl)-2-hydroxy-propyl]-1-oxo-3,4-dihydroisoquinolin-6-yl]piperazine-1-carboxylate]"
5,1 to 100 nM,"CN1CCCC(Oc2ccc3c(c2)CCN(C[C@H](O)CN2CCc4ccccc4C2)C3=O)C1 (stereo partly drawn) [Example 139, 2-[(2R)-3-(3,4-dihydro-1H-isoquinolin-2-yl)-2-hydroxypropyl]-6-[(1-methyl-3-piperidyl)oxy]-3,4-dihydroisoquinolin-1-one]"
6,1 to 100 nM,"CC1(C)CN(C[C@H](O)CN2CCc3ccccc3C2)C(=O)c2ccc(N3CCC(N4CCCC4)CC3)cc21 [Example 124, 2-[(2R)-3-(3,4-dihydro-1H-isoquinolin-2-yl)-2-hydroxy-propyl]-4,4-dimethyl-6-(4-pyrrolidin-1-yl-1-piperidyl)-3H-isoquinolin-1-one]"
7,1 to 100 nM,"COC1CCN(c2ccc3c(c2)CCN(C[C@H](O)CN2CCc4ccccc4C2)C3=O)CC1 [Example 48, 2-[(2R)-3-(3,4-dihydro-1H-isoquinolin-2-yl)-2-hydroxy-propyl]-6-(4-methoxy-1-piperidyl)-3,4-dihydroisoquinolin-1-one]"
8,1 to 100 nM,"O=C1c2ccc(-c3ccc(F)nc3)cc2CCN1C[C@H](O)CN1CCc2ccccc2C1 [Example 15, 2-[(2R)-3-(3,4-dihydro-1H-isoquinolin-2-yl)-2-hydroxy-propyl]-6-(6-fluoro-3-pyridyl)-3,4-dihydroisoquinolin-1-one]"
9,1 to 100 nM,"O=C(CO)Nc1ccc2c(c1)CCN(C[C@H](O)CN1CCc3ccccc3C1)C2=O [Example 41, N-[2-[(2R)-3-(3,4-dihydro-1H-isoquinolin-2-yl)-2-hydroxy-propyl]-1-oxo-3,4-dihydroisoquinolin-6-yl]-2-hydroxy-acetamide]"
